Experimental data reported in ChEMBL document CHEMBL1201862, “PubChem BioAssay data set” (2004).
“And” between values parts separate entries of the source, which are not always exact repeats. Equal values may be shown once. The source made the active and inactive calls.

Assays:
[1] = inhibition of Env-driven cell fusion – HIV entry, plate reader, dry powder, dose response (AID 687023); type: functional, cell-based
[2] = luciferase signal loss, tTA control fusion, HeLa F-luc tTA cells, dry powder, counter-screen for HIV Env fusion inhibitor project, dose response (AID 687021); type: functional, cell-based
[3] = viability loss in CEM21 cells – cell-based, plate reader, dry powder, cytotoxicity control, dose response (AID 687026); type: functional
[4] = target: T1, Protein skinhead-1 (Caenorhabditis elegans, UniProt P34707); type: functional
T1 sequence (P34707 whole entry): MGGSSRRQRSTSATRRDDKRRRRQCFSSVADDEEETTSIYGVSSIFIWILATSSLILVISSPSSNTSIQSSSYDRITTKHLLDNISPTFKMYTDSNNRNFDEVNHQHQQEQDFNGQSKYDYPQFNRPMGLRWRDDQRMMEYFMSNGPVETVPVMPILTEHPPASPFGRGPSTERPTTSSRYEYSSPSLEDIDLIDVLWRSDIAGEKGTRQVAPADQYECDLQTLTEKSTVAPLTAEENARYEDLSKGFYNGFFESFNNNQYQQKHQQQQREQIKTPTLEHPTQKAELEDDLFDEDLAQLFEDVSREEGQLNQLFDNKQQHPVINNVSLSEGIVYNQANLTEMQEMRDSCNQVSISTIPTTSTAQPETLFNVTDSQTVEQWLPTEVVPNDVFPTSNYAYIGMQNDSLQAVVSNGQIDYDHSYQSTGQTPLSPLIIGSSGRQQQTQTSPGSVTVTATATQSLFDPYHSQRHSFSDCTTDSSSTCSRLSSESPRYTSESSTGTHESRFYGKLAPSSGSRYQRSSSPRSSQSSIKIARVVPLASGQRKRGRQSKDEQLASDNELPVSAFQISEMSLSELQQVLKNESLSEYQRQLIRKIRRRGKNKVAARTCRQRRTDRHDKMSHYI

[5] = target: NAD-dependent protein deacylase sirtuin-5, mitochondrial (Homo sapiens, UniProt Q9NXA8); test: sirtuin-5 deacylation blockers, concentration series – biochemical, fluorescence imaging, cherry-pick, set 5, dose response (AID 720591);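 further: desuccinylation of succinyl peptide AMC substrate read as fluorescence after trypsin release; potency of inhibitors that lower fluorescence and may act on trypsin instead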
Chain of NAD-dependent protein deacylase sirtuin-5, mitochondrial (Q9NXA8 whole entry): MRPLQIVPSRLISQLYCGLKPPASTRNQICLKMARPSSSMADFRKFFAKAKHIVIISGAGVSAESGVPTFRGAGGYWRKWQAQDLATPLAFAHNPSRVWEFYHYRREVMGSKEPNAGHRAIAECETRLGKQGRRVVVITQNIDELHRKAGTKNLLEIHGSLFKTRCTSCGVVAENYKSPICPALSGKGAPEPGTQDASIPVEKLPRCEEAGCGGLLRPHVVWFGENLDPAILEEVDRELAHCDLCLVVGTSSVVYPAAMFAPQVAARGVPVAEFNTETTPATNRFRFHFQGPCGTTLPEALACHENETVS

[6] = HepG2 cell viability loss – cherry-picked samples, cytotoxicity control, dose response (AID 1053183); type: functional, cell-based
[7] = HEK293 cell viability loss – cherry-picked samples, cytotoxicity control, dose response (AID 1053185); type: functional, cell-based
[8] = target: NS3 (Hepatitis C virus, UniProt A3EZJ3); test: NS3h DNA-binding inhibition IC50 – biochemical, fluorescence polarization, ChemBridge library, dose response (AID 743264)
Chain of NS3 (A3EZJ3 whole entry): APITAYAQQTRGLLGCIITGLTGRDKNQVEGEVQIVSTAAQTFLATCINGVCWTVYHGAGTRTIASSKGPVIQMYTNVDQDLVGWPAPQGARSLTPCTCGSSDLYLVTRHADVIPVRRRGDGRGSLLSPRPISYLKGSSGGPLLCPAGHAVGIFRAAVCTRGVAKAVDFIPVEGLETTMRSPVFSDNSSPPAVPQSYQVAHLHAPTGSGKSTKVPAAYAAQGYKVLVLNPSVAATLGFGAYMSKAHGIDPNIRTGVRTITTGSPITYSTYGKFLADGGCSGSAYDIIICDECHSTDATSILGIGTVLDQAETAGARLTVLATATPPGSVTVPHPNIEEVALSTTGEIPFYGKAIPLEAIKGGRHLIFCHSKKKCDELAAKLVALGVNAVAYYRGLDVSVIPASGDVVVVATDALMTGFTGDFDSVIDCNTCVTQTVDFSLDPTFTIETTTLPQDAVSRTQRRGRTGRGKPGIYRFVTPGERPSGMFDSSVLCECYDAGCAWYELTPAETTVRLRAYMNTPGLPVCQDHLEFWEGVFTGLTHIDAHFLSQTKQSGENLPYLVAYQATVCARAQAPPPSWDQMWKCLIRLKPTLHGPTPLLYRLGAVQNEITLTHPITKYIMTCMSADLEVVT

[9] = target: T2, Adenosylmethionine-8-amino-7-oxononanoate aminotransferase (Mycobacterium tuberculosis, UniProt P9WQ81); test: Mycobacterium tuberculosis BioA enzyme inhibitor Measured in Biochemical System Using Plate Reader - 2163-02_Inhibitor_Dose_CherryPick_Activity.; type: functional, Mycobacterium tuberculosis UT205
T2 sequence (P9WQ81 whole entry): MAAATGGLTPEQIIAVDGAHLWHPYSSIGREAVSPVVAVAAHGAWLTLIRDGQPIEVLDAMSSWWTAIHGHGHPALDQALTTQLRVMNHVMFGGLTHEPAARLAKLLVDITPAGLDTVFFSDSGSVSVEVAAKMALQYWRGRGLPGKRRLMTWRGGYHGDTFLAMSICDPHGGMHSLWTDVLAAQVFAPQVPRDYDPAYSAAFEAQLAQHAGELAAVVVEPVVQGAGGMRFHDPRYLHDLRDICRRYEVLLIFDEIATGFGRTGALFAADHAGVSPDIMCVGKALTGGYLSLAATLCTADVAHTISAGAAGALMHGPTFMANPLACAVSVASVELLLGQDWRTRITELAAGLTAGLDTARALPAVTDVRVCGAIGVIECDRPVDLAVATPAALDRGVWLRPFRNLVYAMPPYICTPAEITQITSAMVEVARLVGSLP

[10] = test system: HeLa; test: viability loss in HeLa cells – cell-based, ATP luminescence, cherry-pick samples, cytotoxicity control, dose response (AID 687004); type: functional; conditions: Homo sapiens
[11] = luciferase reporter signal suppression in cells – H4 neuroglioma cells, luminescence, dose response (AID 1990); type: functional, cell-based
[12] = Luminescence Cell-Based Dose Response HTS to Identify Inhibitors of 5'UTR Stem-Loop Driven Prion Protein mRNA Translation in H4 Neuroglioblastoma Cells. [Related pubchem assays: 1827 (Project Summary), 1813 (Primary HTS)]; type: functional
[13] = alpha-synuclein stem-loop luciferase translation blockers – H4 neuroglioma cells, luminescence, confirmation (AID 1988); type: functional, cell-based
[14] = activation of miR-122 Renilla sensor silencing – cell-based, Huh7 psiCHECK-miR122, Renilla luciferase, cherry-picked, dose response (AID 651956); type: functional;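 further: huh7 hepatoma cells stably carrying a psiCHECK-2 miR-122 sensor plasmid; renilla luciferase signal reporting endogenous miR-122 activity after 48 h compound exposure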
[15] = general mammalian cell viability loss – inhibitor set, cherry-pick, set 2, cytotoxicity control for miR-122 modulator project, dose response (AID 720697); type: functional, cell-based
[16] = test system: A549; test: viability loss in A549 cells – cell-based, plate reader, cherry-pick samples, cytotoxicity control, dose response (AID 687028); type: functional; conditions: Homo sapiens
[17] = Late stage assay provider results from the probe development effort to identify inhibitors of the Plasmodium falciparum M18 Aspartyl Aminopeptidase (M18AAP): radiolabel-based cell-based dose response assay to identify compounds that inhibit P. falciparum growth in RBCs, Set 2..; type: functional
[18] = target: Protein Wnt-3a (Mus musculus, UniProt P27467); test: SAR analysis of small molecule antagonists of Gli-SUFU in a Wnt3a luminescent reporter assay.; type: functional
Chain of Protein Wnt-3a (P27467 whole entry): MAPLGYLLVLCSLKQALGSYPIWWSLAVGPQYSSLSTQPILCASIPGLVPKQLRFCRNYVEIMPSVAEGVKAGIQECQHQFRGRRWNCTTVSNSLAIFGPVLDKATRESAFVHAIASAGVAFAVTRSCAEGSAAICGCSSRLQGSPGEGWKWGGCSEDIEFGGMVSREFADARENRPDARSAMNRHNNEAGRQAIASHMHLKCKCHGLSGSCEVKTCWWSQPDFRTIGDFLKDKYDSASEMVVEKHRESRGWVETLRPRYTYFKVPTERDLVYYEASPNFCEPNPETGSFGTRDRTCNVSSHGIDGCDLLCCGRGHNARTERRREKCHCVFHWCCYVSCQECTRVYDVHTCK

[19] = Counterscreen for […] of the human trace amine associated receptor 1 (TAAR1): Fluorescence-based cell-based high throughput dose response assay to identify nonselective Ga16 agonists.; type: functional
[20] = Counterscreen for antagonists of the human trace amine associated receptor 1 (hTAAR1): Fluorescence-based cell-based high throughput dose response assay to identify nonselective Ga16 antagonists.; type: functional
[21] = target: Kallikrein-7 (Homo sapiens, UniProt P49862); test: Fluorescence Intensity-based biochemical primary high throughput dose response assay to identify activators of kallikrein-7 (K7) zymogen.
Chain of Kallikrein-7 (P49862 whole entry): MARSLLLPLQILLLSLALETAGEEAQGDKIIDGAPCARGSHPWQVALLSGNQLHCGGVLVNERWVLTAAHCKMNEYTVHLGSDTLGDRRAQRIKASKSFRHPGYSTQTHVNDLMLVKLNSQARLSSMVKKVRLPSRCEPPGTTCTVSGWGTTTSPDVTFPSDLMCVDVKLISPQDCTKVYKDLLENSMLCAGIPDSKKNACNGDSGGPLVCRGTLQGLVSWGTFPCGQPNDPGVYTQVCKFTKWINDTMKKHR

[22] = inhibitors of non-replicating M. tuberculosis, dose response, luciferase, dry powder (AID 651619); type: functional; conditions: Mycobacterium tuberculosis
[23] = HeLa cell viability loss – plate reader, dry powder, cytotoxicity control, dose response (AID 651946); type: functional, cell-based
[24] = inhibitors of non-replicating M. tuberculosis, dose response, luciferase, dry powder (AID 651620); type: functional; conditions: Mycobacterium tuberculosis

**Q.** Which AC50 [1] does the source give for `CCOc1ccc(C)cc1S(=O)(=O)NCc1ccncc1` here?
**A.** Its AC50 is 4.69 µM (active) and 8.19 µM (active).

**Q.** And the AC50 [2]?
**A.** Its AC50 is > 70 µM (inactive).

**Q.** What about the AC50 [3] of the same molecule?
**A.** The AC50 was > 70 µM (inactive).

**Q.** For `Fc1ccc(-c2nc3ccc(Cl)cn3c2Cc2ccsc2)cc1`, which IC50 [4] is on record?
**A.** Its IC50 is 70.3 µM (inactive).

**Q.** And the AC50 [5]?
**A.** Its AC50 is 25.8 µM (active).

**Q.** What does the source list for `C[C@H]1CNC(=O)[C@@H](Cc2ccc(C(F)(F)F)cc2)CCn2nncc2COC1`?
**A.** AC50 [6]: 35.5 µM (active); AC50 [7]: > 52 µM (inactive)

**Q.** For `Cc1ccc(C(=O)O)cc1-n1c(C)ccc1C`, which IC50 [8] is on record?
**A.** The IC50 was 7.6 µM (inactive).

**Q.** For `O=C(C1CCOCC1)N1CC[C@@H]2[C@H]1c1cc(Br)ccc1N[C@@H]2CO`, which AC50 [9] is on record?
**A.** Its AC50 is 4.59 µM (active).

**Q.** What about the AC50 [10] of the same molecule?
**A.** Its AC50 is > 52 µM (inactive).

**Q.** For `Cc1oc(-c2ccc(Cl)cc2)nc1CN1CCCC(C(=O)NCc2ccco2)C1` (centres undefined), which EC50 [11] is on record?
**A.** Its EC50 is > 120 µM (not active).

**Q.** And the EC50 [12]?
**A.** Its EC50 is > 120 µM (not active).

**Q.** And the EC50 [13]?
**A.** Its EC50 is > 120 µM (not active).

**Q.** And the AC50 [14]?
**A.** Its AC50 is 6.37 µM (active).

**Q.** What about the AC50 [15] of the same molecule?
**A.** The AC50 was 1.3 µM (active).

**Q.** With `COc1ccc(S(=O)(=O)N2CCN(CC(=O)NC3CC3)CC2)cc1` as the molecule, how does the AC50 [16] read?
**A.** Its AC50 is 35.1 µM (active).

**Q.** For `COc1ccc(C2CCN(c3ccnc4ccccc34)C2)cc1OC` (centres undefined), which IC50 [17] is on record?
**A.** The IC50 was 2 µM (active).

**Q.** Which IC50 [18] does the source give for `CN(C)c1cc(NC(=O)c2cccc(F)c2)ncn1` here?
**A.** The IC50 was > 21.8 µM (inactive).

**Q.** With `CCCOC(=O)c1c(-c2ccc(OC)cc2)oc2ccc(-c3ccc(OC)nc3)cc12` as the molecule, how does the EC50 [19] read?
**A.** Its EC50 is > 29.9 µM (inactive).

**Q.** What about the IC50 [20] of the same molecule?
**A.** The IC50 was > 29.9 µM (inactive).

**Q.** With `COc1cccc(CNC(=O)c2ccc3c(c2)N(C)CCS3)c1OC` as the molecule, how does the EC50 [21] read?
**A.** Its EC50 is > 69.5 µM (inactive).

**Q.** With `Clc1ccc(-c2nnc(SCc3cn(-c4ccccc4)nn3)o2)cc1` as the molecule, how does the IC90 [22] read?
**A.** Its IC90 is 1 µM (active).

**Q.** What about the AC50 [23] of the same molecule?
**A.** The AC50 was > 52 µM (inactive).

**Q.** What about the IC90 [24] of the same molecule?
**A.** Its IC90 is 1 µM (active).
